One series concerns BMF. Briefly: Apoptotic nuclei after BMF knockdown siRNA and CP-dn-CEBPD. The conditions noted are these: siRNA 2 days, then 20 μM peptide 2 days; T98G, MCF7, A375 and HCT116 cells. The format is cell-based. The protocol:
T98G, MCF7, A375, and HCT116 cells were treated with one of two BMF knockdown siRNAs or control siRNA for 2 days, then treated with or without 20 μM CP-dn-CEBPD for 2 days. Cultures were assessed for % of apoptotic nuclei (n=6 random fields) (FIG. 36A, T98G; FIG. 36B, MCF7; FIG. 38C, A375; FIG. 36D, HCT116).

The subject of a further series is B16-F10 cells. Briefly: B16-F10 subcutaneous tumors. It is filed as in vivo, C56BL/6 mice. The conditions noted are these: 20 or 50 mg/kg intraperitoneally. The protocol:
B16-F10 cells were subcutaneously implanted in the flanks of C56BL/6 mice. After the tumors were established, the mice were treated intraperitoneally with 20 or 50 mg/kg of CP-dn-CEBPD or vehicle as indicated in the schema shown in FIG. 38A. Animal weight was monitored (FIG. 38B). […] FIG. 38D compares calculated individual and mean tumor volumes for each group of animals on day 12.

For the next series, the system named is A375 cells. Briefly: A375 subcutaneous tumors, 20 mg/kg survival study. The note with it: 20 mg/kg intraperitoneally. It is filed as in vivo, NCR nude mice. The protocol:
A375 cells were subcutaneously implanted in the flanks of NCR nude mice. Once tumors had formed, the animals were treated intraperitoneally with 20 mg/kg of CP-dn-CEBPD or vehicle as indicated in the schema shown in FIG. 39A. Animal weight was monitored (FIG. 39B). Tumor sizes were measured and volumes calculated on each day of injection. […] FIG. 39D compares calculated individual and mean tumor volumes for vehicle and CP-dn-CEBPD treated animals on day 28.

A further series relates to HCT116 cells. Put plainly: HCT116 subcutaneous tumors. The format is in vivo, NCR nude mice. The note with it: 20 mg/kg intraperitoneally. How it is done:
HCT116 cells were subcutaneously implanted in the flanks of NCR nude mice. After tumors formed, the animals were treated intraperitoneally with 20 mg/kg of CP-dn-CEBPD or vehicle as indicated in the schema shown FIG. 40A. Animal weight was monitored (FIG. 40). […] FIG. 40D compares calculated individual and mean tumor volumes for vehicle and CP-dn-CEBPD treated animals on day 11.

For a further series, the system named is A375 xenograft tumors. Briefly: TUNEL staining of A375 xenograft tumors. The note with it: 20 mg/kg, retreated 2 days later, tumors harvested after additional 2 days. The format is in vivo, mice. How it is done: Subcutaneous A375 xenograft tumors were established in mice. When the tumors reached approximately 300 mm^3, randomly chosen animals were treated with vehicle or 20 mg/kg of CP-dn-CEBPD. The animals were retreated 2 days later and, after an additional 2 days, the animals were sacrificed, and the tumors harvested for histology and TUNEL staining to detect apoptosis. Results are presented in FIG. 42A (vehicle) and FIG. 42B (CP-dn-CEBPD).

The mark [1] stands for this setting: endpoint morbid behavior or tumor >1000 mm^3.

No end group written: not given here.

Consider one sequence from patent US12428455B2, “Dominant negative CEBPB and CEBPD proteins and methods of use for decreasing viability of neoplastic cells” (The Trustees of Columbia University in the City of New York, priority 2018, dated 2025).

Regarding “RQIKIWFQNRRMKWKKLVELSAENEKLHQRVEQLTRDLAGLRQFFK [CP-DN-CEBPD]”, in the series on BMF, the “% of apoptotic nuclei with BMF knockdown siRNAs or control siRNA” value is “kills cancer cells by upregulating pro-apoptotic BMF”. For the same sequence, the “side effects (animal weight monitored)” value in the series on B16-F10 cells, with A375 cells and in the series with HCT116 cells was “no apparent side effects” each time. Moreover, the “tumor growth (calculated tumor volumes)” value in the series with B16-F10 cells (to day 12-13), in the series on A375 cells (to day 28) and in the series on HCT116 cells (to day 11) was “suppressed tumor growth” throughout. Moreover, the animal survival entry in the series on A375 cells (setting [1]) and with HCT116 cells (setting [1]) was “increased animal survival” in each case. In addition, the “apoptosis of tumor cells (TUNEL staining)” value in the series on A375 xenograft tumors was “causes apoptosis of tumor cells in vivo”.
